Data taken from ChEMBL document CHEMBL3407340, “Synthesis, radiolabeling and evaluation of novel 4-oxo-quinoline derivatives as PET tracers for imaging cannabinoid type 2 receptor” (Eur J Med Chem, 2015).
pKi: −log10 of the molar value.

Columns and labels:
Cannabinoid receptor 1 = Cannabinoid receptor 1 (Homo sapiens, UniProt P21554); test: Displacement of [3H]-CP-55940 from human CB1 receptor transfected in CHOK1 cells after 90 mins by liquid scintillation counting analysis; type: cell-based, CHO-K1
Brain [1] = test: Drug uptake in LPS-treated mouse whole brain at 10 to 18 MBq, iv by PET imaging analysis in presence of […]; type: ADME, organism-based; settings: in vivo
Cortex [2] = test: Drug uptake in LPS-treated mouse cortex at 10 to 18 MBq, iv by PET imaging analysis in presence of […]; type: ADME, organism-based; settings: in vivo
Hippocampus [3] = test: Drug uptake in LPS-treated mouse hippocampus at 10 to 18 MBq, iv by PET imaging analysis in presence of […]; type: ADME, organism-based; settings: in vivo
Cerebellum [4] = test: Drug uptake in LPS-treated mouse cerebellum at 10 to 18 MBq, iv by PET imaging analysis in presence of GW405883; type: ADME, organism-based; settings: in vivo
Plasma [5] = test: Stability in human plasma after 40 mins; type: ADME, cell-free
[6] = Partition coefficient, log D of the compound in n-octanol/phosphate buffer at pH 7.4 after 15 mins by shake flask method; type: physicochemical
Plasma [7] = test: Stability in mouse plasma after 40 mins; type: ADME, cell-free
Plasma [8] = test: Stability in rat plasma after 40 mins; type: ADME, cell-free
[9] = Drug uptake in human cervical spinal cord at 0.4 nM after 15 mins by autoradiography; type: ADME, tissue-based; settings: 0.25 h, 0.0004 µM
[10] = Drug uptake in human lumbar spinal cord at 0.4 nM after 15 mins by autoradiography; type: ADME, tissue-based; settings: 0.25 h, 0.0004 µM
[11] = Drug metabolism in Wistar rat plasma assessed as parent compound remaining at 115 to 163 MBq, iv after 5 mins; type: ADME, organism-based; settings: read-out: Stability
[12] = Drug metabolism in Wistar rat plasma assessed as parent compound remaining at 115 to 163 MBq, iv after 10 mins; type: ADME, organism-based; settings: read-out: Stability
[13] = Drug metabolism in Wistar rat plasma assessed as parent compound remaining at 115 to 163 MBq, iv after 20 mins; type: ADME, organism-based; settings: read-out: Stability
[14] = Drug metabolism in Wistar rat spleen assessed as parent compound remaining at 115 to 163 MBq, iv after 20 mins; type: ADME, organism-based; settings: read-out: Stability
Spleen [15] = test: Biodistribution in Wistar rat spleen at 5 to 10 MBq, iv after 15 mins by gamma counting analysis; type: ADME, organism-based; settings: in vivo, 0.25 h
Liver [16] = test: Biodistribution in Wistar rat liver at 5 to 10 MBq, iv after 15 mins by gamma counting analysis; type: ADME, organism-based; settings: in vivo, 0.25 h
Kidney [17] = test: Biodistribution in Wistar rat kidneys at 5 to 10 MBq, iv after 15 mins by gamma counting analysis; type: ADME, organism-based; settings: in vivo, 0.25 h
Adrenal gland [18] = test: Biodistribution in Wistar rat adrenal gland at 5 to 10 MBq, iv after 15 mins by gamma counting analysis; type: ADME, organism-based; settings: in vivo, 0.25 h
Lung [19] = test: Biodistribution in Wistar rat lung at 5 to 10 MBq, iv after 15 mins by gamma counting analysis; type: ADME, organism-based; settings: in vivo, 0.25 h
Bone [20] = test: Biodistribution in Wistar rat bone at 5 to 10 MBq, iv after 15 mins by gamma counting analysis; type: ADME, organism-based, Bone element; settings: in vivo, 0.25 h
Heart [21] = test: Biodistribution in Wistar rat heart at 5 to 10 MBq, iv after 15 mins by gamma counting analysis; type: ADME, organism-based; settings: in vivo, 0.25 h
Rattus norvegicus [22] = test: Biodistribution in Wistar rat fat at 5 to 10 MBq, iv after 15 mins by gamma counting analysis; type: ADME, organism-based, Adipose tissue; settings: in vivo, 0.25 h
Small intestine [23] = test: Biodistribution in Wistar rat small intestine at 5 to 10 MBq, iv after 15 mins by gamma counting analysis; type: ADME, organism-based; settings: in vivo, 0.25 h
Rattus norvegicus [24] = test: Biodistribution in Wistar rat testis at 5 to 10 MBq, iv after 15 mins by gamma counting analysis; type: ADME, organism-based; settings: in vivo, 0.25 h
Blood [25] = test: Biodistribution in Wistar rat blood at 5 to 10 MBq, iv after 15 mins by gamma counting analysis; type: ADME, organism-based; settings: in vivo, 0.25 h
Rattus norvegicus [26] = test: Biodistribution in Wistar rat thyroid gland at 5 to 10 MBq, iv after 15 mins by gamma counting analysis; type: ADME, organism-based; settings: in vivo, 0.25 h
[27] = Biodistribution in Wistar rat urine at 5 to 10 MBq, iv after 15 mins by gamma counting analysis; type: ADME, organism-based; settings: in vivo, 0.25 h
Muscle tissue [28] = test: Biodistribution in Wistar rat muscle at 5 to 10 MBq, iv after 15 mins by gamma counting analysis; type: ADME, organism-based; settings: in vivo, 0.25 h
Pancreas [29] = test: Biodistribution in Wistar rat pancreas at 5 to 10 MBq, iv after 15 mins by gamma counting analysis; type: ADME, organism-based; settings: in vivo, 0.25 h
Zone of skin [30] = test: Biodistribution in Wistar rat skin at 5 to 10 MBq, iv after 15 mins by gamma counting analysis; type: ADME, organism-based; settings: in vivo, 0.25 h
Brain [31] = test: Biodistribution in Wistar rat brain at 5 to 10 MBq, iv after 15 mins by gamma counting analysis; type: ADME, organism-based; settings: in vivo, 0.25 h
Spleen [32] = test: Biodistribution in Wistar rat spleen at 5 to 10 MBq, iv after 15 mins by gamma counting analysis in presence of GW405883; type: ADME, organism-based; settings: in vivo, 0.25 h
Liver [33] = test: Biodistribution in Wistar rat liver at 5 to 10 MBq, iv after 15 mins by gamma counting analysis in presence of GW405883; type: ADME, organism-based; settings: in vivo, 0.25 h
Kidney [34] = test: Biodistribution in Wistar rat kidneys at 5 to 10 MBq, iv after 15 mins by gamma counting analysis in presence of GW405883; type: ADME, organism-based; settings: in vivo, 0.25 h
Adrenal gland [35] = test: Biodistribution in Wistar rat adrenal gland at 5 to 10 MBq, iv after 15 mins by gamma counting analysis in presence of GW405883; type: ADME, organism-based; settings: in vivo, 0.25 h
Lung [36] = test: Biodistribution in Wistar rat lung at 5 to 10 MBq, iv after 15 mins by gamma counting analysis in presence of GW405883; type: ADME, organism-based; settings: in vivo, 0.25 h
Bone [37] = test: Biodistribution in Wistar rat bone at 5 to 10 MBq, iv after 15 mins by gamma counting analysis in presence of GW405883; type: ADME, organism-based, Bone element; settings: in vivo, 0.25 h
Heart [38] = test: Biodistribution in Wistar rat heart at 5 to 10 MBq, iv after 15 mins by gamma counting analysis in presence of GW405883; type: ADME, organism-based; settings: in vivo, 0.25 h
Rattus norvegicus [39] = test: Biodistribution in Wistar rat fat at 5 to 10 MBq, iv after 15 mins by gamma counting analysis in presence of GW405883; type: ADME, organism-based, Adipose tissue; settings: in vivo, 0.25 h
Small intestine [40] = test: Biodistribution in Wistar rat small intestine at 5 to 10 MBq, iv after 15 mins by gamma counting analysis in presence of GW405883; type: ADME, organism-based; settings: in vivo, 0.25 h
Rattus norvegicus [41] = test: Biodistribution in Wistar rat testis at 5 to 10 MBq, iv after 15 mins by gamma counting analysis in presence of GW405883; type: ADME, organism-based; settings: in vivo, 0.25 h
Blood [42] = test: Biodistribution in Wistar rat blood at 5 to 10 MBq, iv after 15 mins by gamma counting analysis in presence of GW405883; type: ADME, organism-based; settings: in vivo, 0.25 h
Rattus norvegicus [43] = test: Biodistribution in Wistar rat thyroid gland at 5 to 10 MBq, iv after 15 mins by gamma counting analysis in presence of GW405883; type: ADME, organism-based; settings: in vivo, 0.25 h
[44] = Biodistribution in Wistar rat urine at 5 to 10 MBq, iv after 15 mins by gamma counting analysis in presence of GW405883; type: ADME, organism-based; settings: in vivo, 0.25 h
Muscle tissue [45] = test: Biodistribution in Wistar rat muscle at 5 to 10 MBq, iv after 15 mins by gamma counting analysis in presence of GW405883; type: ADME, organism-based; settings: in vivo, 0.25 h
Pancreas [46] = test: Biodistribution in Wistar rat pancreas at 5 to 10 MBq, iv after 15 mins by gamma counting analysis in presence of GW405883; type: ADME, organism-based; settings: in vivo, 0.25 h
Zone of skin [47] = test: Biodistribution in Wistar rat skin at 5 to 10 MBq, iv after 15 mins by gamma counting analysis in presence of GW405883; type: ADME, organism-based; settings: in vivo, 0.25 h
Brain [48] = test: Biodistribution in Wistar rat brain at 5 to 10 MBq, iv after 15 mins by gamma counting analysis in presence of GW405883; type: ADME, organism-based; settings: in vivo, 0.25 h
Spleen [49] = test: Biodistribution in Wistar rat spleen at 5 to 10 MBq, iv after 15 mins by gamma counting analysis in presence of GW405883 relative to control; type: ADME, organism-based; settings: in vivo, 0.25 h
Brain [50] = test: Drug uptake in LPS-treated mouse brain at 0.2 nM, iv after 5 days by PET imaging analysis relative to vehicle-treated control; type: ADME, organism-based; settings: in vivo, 120 h, 0.0002 µM
Brain [51] = test: Drug uptake in LPS-treated mouse brain at 0.2 nM, iv after 5 days by PET imaging analysis in presence of GW405883 relative to control; type: ADME, organism-based; settings: in vivo, 120 h, 0.0002 µM
Brain [52] = test: Drug uptake in LPS-treated mouse whole brain at 10 to 18 MBq, iv by PET imaging analysis; type: ADME, organism-based; settings: in vivo
Cortex [53] = test: Drug uptake in LPS-treated mouse cortex at 10 to 18 MBq, iv by PET imaging analysis; type: ADME, organism-based; settings: in vivo
Hippocampus [54] = test: Drug uptake in LPS-treated mouse hippocampus at 10 to 18 MBq, iv by PET imaging analysis; type: ADME, organism-based; settings: in vivo
Cerebellum [55] = test: Drug uptake in LPS-treated mouse cerebellum at 10 to 18 MBq, iv by PET imaging analysis; type: ADME, organism-based; settings: in vivo

Sequence of Cannabinoid receptor 1 (P21554 whole entry): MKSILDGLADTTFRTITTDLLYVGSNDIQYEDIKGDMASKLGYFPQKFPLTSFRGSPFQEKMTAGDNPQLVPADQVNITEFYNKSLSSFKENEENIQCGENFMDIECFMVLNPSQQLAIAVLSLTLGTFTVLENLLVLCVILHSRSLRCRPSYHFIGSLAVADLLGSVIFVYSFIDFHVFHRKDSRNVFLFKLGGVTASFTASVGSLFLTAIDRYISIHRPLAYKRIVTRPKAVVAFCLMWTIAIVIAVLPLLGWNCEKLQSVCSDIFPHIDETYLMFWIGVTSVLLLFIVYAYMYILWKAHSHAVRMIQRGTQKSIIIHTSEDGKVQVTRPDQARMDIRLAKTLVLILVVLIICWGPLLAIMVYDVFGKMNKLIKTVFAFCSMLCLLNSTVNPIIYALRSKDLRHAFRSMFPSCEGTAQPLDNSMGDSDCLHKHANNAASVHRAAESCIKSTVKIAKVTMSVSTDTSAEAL

CCOCCn1cc(C(=O)NCCc2ccccc2)c(=O)c2cccc(OC)c21
pKi (Cannabinoid receptor 1): < 5.00

CCOCCn1cc(C(=O)NC23CC4CC(CC(C4)C2)C3)c(=O)c2cccc(O[11CH3])c21
Drug uptake (Brain [1]): Not Active | Drug uptake (Cortex [2]): Not Active | Drug uptake (Hippocampus [3]): Not Active | Drug uptake (Cerebellum [4]): Not Active | Stability (Plasma [5]): Stable | logD at 0.25 h [6]: 2.78 | Stability (Plasma [7]): Stable | Stability (Plasma [8]): Stable | Drug uptake [9]: Active | Drug uptake [10]: Active | remaining at 5 min [11]: 72% | remaining at 10 min [12]: 55% | remaining at 20 min [13]: 47% | remaining at 20 min [14]: 81% | Drug uptake (Spleen [15]): 0.284 % ID/g | Drug uptake (Liver [16]): 0.505 % ID/g | Drug uptake (Kidney [17]): 0.122 % ID/g | Drug uptake (Adrenal gland [18]): 0.216 % ID/g | Drug uptake (Lung [19]): 0.088 % ID/g | Drug uptake (Bone [20]): 0.046 % ID/g | Drug uptake (Heart [21]): 0.08 % ID/g | Drug uptake (Rattus norvegicus [22]): 0.05 % ID/g | Drug uptake (Small intestine [23]): 0.924 % ID/g | Drug uptake (Rattus norvegicus [24]): 0.033 % ID/g | Drug uptake (Blood [25]): 0.044 % ID/g | Drug uptake (Rattus norvegicus [26]): 0.077 % ID/g | Drug uptake [27]: 0.06 % ID/g | Drug uptake (Muscle tissue [28]): 0.065 % ID/g | Drug uptake (Pancreas [29]): 0.11 % ID/g | Drug uptake (Zone of skin [30]): 0.05 % ID/g | Drug uptake (Brain [31]): 0.025 % ID/g | Drug uptake (Spleen [32]): 0.062 % ID/g | Drug uptake (Liver [33]): 0.38 % ID/g | Drug uptake (Kidney [34]): 0.134 % ID/g | Drug uptake (Adrenal gland [35]): 0.262 % ID/g | Drug uptake (Lung [36]): 0.075 % ID/g | Drug uptake (Bone [37]): 0.039 % ID/g | Drug uptake (Heart [38]): 0.091 % ID/g | Drug uptake (Rattus norvegicus [39]): 0.053 % ID/g | Drug uptake (Small intestine [40]): 0.425 % ID/g | Drug uptake (Rattus norvegicus [41]): 0.034 % ID/g | Drug uptake (Blood [42]): 0.03 % ID/g | Drug uptake (Rattus norvegicus [43]): 0.064 % ID/g | Drug uptake [44]: 0.08 % ID/g | Drug uptake (Muscle tissue [45]): 0.071 % ID/g | Drug uptake (Pancreas [46]): 0.113 % ID/g | Drug uptake (Zone of skin [47]): 0.057 % ID/g | Drug uptake (Brain [48]): 0.028 % ID/g | Drug uptake (Spleen [49]): 78% | Drug uptake (Brain [50]): Active | Drug uptake (Brain [51]): Not Active | Drug uptake (Brain [52]): Active | Drug uptake (Cortex [53]): Active | Drug uptake (Hippocampus [54]): Active | Drug uptake (Cerebellum [55]): Active

CCCCCn1cc(C(=O)NC23CC4CC(CC(C4)C2)C3)c(=O)c2cccc(OC)c21
pKi (Cannabinoid receptor 1): < 5.00

CCCCn1cc(C(=O)NC2CCCC2)c(=O)c2cccc(OC)c21
pKi (Cannabinoid receptor 1): < 5.00

CCCCn1cc(C(=O)NC23CC4CC(CC(C4)C2)C3)c(=O)c2cccc(OC)c21
pKi (Cannabinoid receptor 1): < 5.00
